In US10357493B2, “Metalloenzyme inhibitor compounds” (Selenity Therapeutics (Bermuda), Ltd., priority 2017, dated 2019):

Experiments:
HDAC1 = HDAC1 (Homo sapiens (Human), UniProt Q13547); assay: HDAC1 enzymatic assay; format: biochemical; details: read-out: Human HDAC1 IC50
Outline: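 Compound inhibition of human HDAC1 (0.5 ng enzyme, 10 uM substrate) was assessed by fluorescence after developer treatment, excitation 360 nm and emission 460 nm. Percent activity was normalized to no-compound (100%) and no-enzyme (0%) controls, plotted against concentration, and fitted to a sigmoidal dose-response curve in Graphpad Prism to obtain IC50 at half-maximal activity.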

HDAC6 = HDAC6 (Homo sapiens (Human), UniProt Q9UBN7); assay: HDAC6 enzymatic assay; format: biochemical; details: read-out: Human HDAC6 IC50
Outline: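 Following a 17 hour room-temperature incubation of 2 ng HDAC6 with 10 uM substrate and compound, 50 μl developer was added for another 20 minutes, and fluorescence (excitation 360 nm, emission 460 nm) was recorded. Activity was normalized to no-compound (100%) and no-enzyme (0%) wells, and IC50 came from sigmoidal dose-response fitting in Graphpad Prism.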

Chain of HDAC6 (Q9UBN7 whole entry): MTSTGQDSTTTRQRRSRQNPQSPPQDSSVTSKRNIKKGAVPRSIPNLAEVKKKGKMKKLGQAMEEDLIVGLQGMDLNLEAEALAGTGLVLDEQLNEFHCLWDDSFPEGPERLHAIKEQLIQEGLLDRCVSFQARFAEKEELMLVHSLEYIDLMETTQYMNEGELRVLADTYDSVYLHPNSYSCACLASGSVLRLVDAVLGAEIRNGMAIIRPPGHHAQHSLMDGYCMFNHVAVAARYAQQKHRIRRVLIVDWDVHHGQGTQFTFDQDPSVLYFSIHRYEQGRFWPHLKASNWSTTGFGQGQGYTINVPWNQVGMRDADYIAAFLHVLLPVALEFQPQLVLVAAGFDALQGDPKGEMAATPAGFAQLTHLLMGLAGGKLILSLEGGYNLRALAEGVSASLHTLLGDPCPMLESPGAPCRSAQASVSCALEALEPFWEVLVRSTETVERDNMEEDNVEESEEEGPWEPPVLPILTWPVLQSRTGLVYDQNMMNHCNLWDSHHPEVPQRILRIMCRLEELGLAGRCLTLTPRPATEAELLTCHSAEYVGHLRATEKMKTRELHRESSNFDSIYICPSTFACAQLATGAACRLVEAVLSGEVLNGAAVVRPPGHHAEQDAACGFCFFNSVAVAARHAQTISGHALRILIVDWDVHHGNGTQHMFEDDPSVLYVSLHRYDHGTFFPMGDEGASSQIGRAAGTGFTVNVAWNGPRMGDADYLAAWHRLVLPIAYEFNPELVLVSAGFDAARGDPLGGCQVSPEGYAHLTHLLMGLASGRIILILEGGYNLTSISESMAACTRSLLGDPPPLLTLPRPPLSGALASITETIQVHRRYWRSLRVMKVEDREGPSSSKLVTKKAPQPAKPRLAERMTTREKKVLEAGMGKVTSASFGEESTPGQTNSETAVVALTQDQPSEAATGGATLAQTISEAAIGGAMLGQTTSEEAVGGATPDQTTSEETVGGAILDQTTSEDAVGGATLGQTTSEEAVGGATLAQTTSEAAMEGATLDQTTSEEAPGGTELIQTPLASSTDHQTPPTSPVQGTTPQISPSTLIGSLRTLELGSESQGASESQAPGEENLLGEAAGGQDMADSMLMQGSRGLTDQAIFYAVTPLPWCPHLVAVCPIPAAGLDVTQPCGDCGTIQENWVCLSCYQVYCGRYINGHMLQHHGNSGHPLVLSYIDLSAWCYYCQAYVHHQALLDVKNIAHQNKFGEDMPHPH
Chain of HDAC1 (Q13547 whole entry): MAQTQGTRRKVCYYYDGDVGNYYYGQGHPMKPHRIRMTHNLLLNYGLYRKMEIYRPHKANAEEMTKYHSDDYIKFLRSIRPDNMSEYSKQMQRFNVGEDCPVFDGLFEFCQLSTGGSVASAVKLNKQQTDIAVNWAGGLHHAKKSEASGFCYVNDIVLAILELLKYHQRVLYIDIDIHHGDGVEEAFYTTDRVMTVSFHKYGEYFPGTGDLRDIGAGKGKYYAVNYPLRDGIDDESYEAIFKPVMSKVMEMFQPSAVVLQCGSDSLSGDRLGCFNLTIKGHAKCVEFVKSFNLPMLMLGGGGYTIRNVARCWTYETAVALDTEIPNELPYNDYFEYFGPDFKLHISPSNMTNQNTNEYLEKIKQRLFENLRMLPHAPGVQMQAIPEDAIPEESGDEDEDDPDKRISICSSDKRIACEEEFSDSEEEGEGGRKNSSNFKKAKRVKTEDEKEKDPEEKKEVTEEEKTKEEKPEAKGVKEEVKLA

SMILES	IC50 (HDAC1) [nM]	IC50 (HDAC6) [nM]
CCS(=O)(=O)NCC(Nc1ncc(-c2nnc(C(F)F)o2)cn1)c1ccc(OC(F)F)cc1F (stereo not drawn) [147(+), N-(2-(4-(difluoromethoxy)-2-fluorophenyl)-2-((5-(5-(difluoromethyl)-1,3,4-oxadiazol-2-yl)pyrimidin-2-yl)amino)ethyl)ethanesulfonamide]	> 30000	18
CCS(=O)(=O)N(C)CC(Nc1ncc(-c2nnc(C(F)F)o2)cn1)c1ccc(OC(F)F)cc1F (stereo not drawn) [148(+), N-(2-(4-(difluoromethoxy)-2-fluorophenyl)-2-((5-(5-(difluoromethyl)-1,3,4-oxadiazol-2-yl)pyrimidin-2-yl)amino)ethyl)-N-methylethanesulfonamide]	> 30000	19
CCS(=O)(=O)N(CC(Nc1ncc(-c2nnc(C(F)F)o2)cn1)c1ccc(OC(F)F)cc1F)CC(F)(F)F (stereo not drawn) [149(+), N-(2-(4-(difluoromethoxy)-2-fluorophenyl)-2-((5-(5-(difluoromethyl)-1,3,4-oxadiazol-2-yl)pyrimidin-2-yl)amino)ethyl)-N-(2,2,2-trifluoroethyl)ethanesulfonamide]	> 30000	200
CN(CC(Nc1ncc(-c2nnc(C(F)F)o2)cn1)c1ccc(OC(F)F)cc1F)S(=O)(=O)C1CC1 (stereo not drawn) [151(+), N-(2-(4-(difluoromethoxy)-2-fluorophenyl)-2-((5-(5-(difluoromethyl)-1,3,4-oxadiazol-2-yl)pyrimidin-2-yl)amino)ethyl)-N-methylcyclopropanesulfonamide]	> 30000	85
O=S(=O)(C1CC1)N(CC(Nc1ncc(-c2nnc(C(F)F)o2)cn1)c1ccc(OC(F)F)cc1F)CC(F)(F)F (stereo not drawn) [152(+), N-(2-(4-(difluoromethoxy)-2-fluorophenyl)-2-((5-(5-(difluoromethyl)-1,3,4-oxadiazol-2-yl)pyrimidin-2-yl)amino)ethyl)-N-(2,2,2-trifluoroethyl)cyclopropanesulfonamide]	> 30000	280
CN(CC(Nc1ncc(-c2nnc(C(F)F)o2)cn1)c1ccc(OC(F)(F)F)cc1)S(C)(=O)=O (stereo not drawn) [153(+), N-(2-((5-(5-(difluoromethyl)-1,3,4-oxadiazol-2-yl)pyrimidin-2-yl)amino)-2-(4-(trifluoromethoxy)phenyl)ethyl)-N-methylmethanesulfonamide]	> 30000	20
CS(=O)(=O)N(CC(Nc1ncc(-c2nnc(C(F)F)o2)cn1)c1ccc(OC(F)(F)F)cc1)CC(F)(F)F (stereo not drawn) [154(+), N-(2-((5-(5-(difluoromethyl)-1,3,4-oxadiazol-2-yl)pyrimidin-2-yl)amino)-2-(4-(trifluoromethoxy)phenyl)ethyl)-N-(2,2,2-trifluoroethyl)methanesulfonamide]	> 30000	260
CCS(=O)(=O)NCC(Nc1ncc(-c2nnc(C(F)F)o2)cn1)c1ccc(OC(F)(F)F)cc1 (stereo not drawn) [155(+), N-(2-((5-(5-(difluoromethyl)-1,3,4-oxadiazol-2-yl)pyrimidin-2-yl)amino)-2-(4-(trifluoromethoxy)phenyl)ethyl)ethanesulfonamide]	> 30000	50
CCS(=O)(=O)N(C)CC(Nc1ncc(-c2nnc(C(F)F)o2)cn1)c1ccc(OC(F)(F)F)cc1 (stereo not drawn) [156(+), N-(2-((5-(5-(difluoromethyl)-1,3,4-oxadiazol-2-yl)pyrimidin-2-yl)amino)-2-(4-(trifluoromethoxy)phenyl)ethyl)-N-methylethanesulfonamide]	> 30000	76
CCS(=O)(=O)N(CC(Nc1ncc(-c2nnc(C(F)F)o2)cn1)c1ccc(OC(F)(F)F)cc1)CC(F)(F)F (stereo not drawn) [157(+), N-(2-((5-(5-(difluoromethyl)-1,3,4-oxadiazol-2-yl)pyrimidin-2-yl)amino)-2-(4-(trifluoromethoxy)phenyl)ethyl)-N-(2,2,2-trifluoroethyl)ethanesulfonamide]	> 30000	440
